Laboratory results as given in PMC8401933 (Molecules, 2021).

Experiments:
Assay in all cases: KINOMEscan binding
EPHB2 = target: T1, EPHB2 (Homo sapiens, UniProt P29323); conditions: read-out: Percent Control
T1 construct: purchased Eurofins DiscoverX KINOMEscan

PDGFRB = target: T2, PDGFRB (Homo sapiens, UniProt P09619); conditions: read-out: Percent Control
T2 construct: purchased Eurofins DiscoverX KINOMEscan

FGFR2 = target: T3, FGFR2 (Homo sapiens, UniProt P21802); conditions: read-out: Percent Control
T3 construct: purchased Eurofins DiscoverX KINOMEscan

MST1R = target: T4, MST1R (Homo sapiens, UniProt Q04912); conditions: read-out: Percent Control
T4 construct: purchased Eurofins DiscoverX KINOMEscan

PRKCH = target: T5, PRKCH (Homo sapiens, UniProt P24723); conditions: read-out: Percent Control
T5 construct: purchased Eurofins DiscoverX KINOMEscan

PAK1 = target: T6, PAK1 (Homo sapiens, UniProt Q13153); conditions: read-out: Percent Control
T6 construct: purchased Eurofins DiscoverX KINOMEscan

PIP5K2C = target: T7, PIP5K2C (Homo sapiens, UniProt Q8TBX8); conditions: read-out: Percent Control
T7 construct: purchased Eurofins DiscoverX KINOMEscan

VEGFR2 = target: T8, VEGFR2 (Homo sapiens, UniProt P35968); conditions: read-out: Percent Control
T8 construct: purchased Eurofins DiscoverX KINOMEscan

PIP5K1A = target: T9, PIP5K1A (Homo sapiens, UniProt Q99755); conditions: read-out: Percent Control
T9 construct: purchased Eurofins DiscoverX KINOMEscan

FLT3-autoinhibited = target: T10, FLT3-autoinhibited (Homo sapiens, UniProt P36888); conditions: read-out: Percent Control
T10 construct: purchased Eurofins DiscoverX KINOMEscan

MAPKAPK5 = target: T11, MAPKAPK5 (Homo sapiens, UniProt Q8IW41); conditions: read-out: Percent Control
T11 construct: purchased Eurofins DiscoverX KINOMEscan

TYRO3 = target: T12, TYRO3 (Homo sapiens, UniProt Q06418); conditions: read-out: Percent Control
T12 construct: purchased Eurofins DiscoverX KINOMEscan

PIK3CA(I800L) = target: T13, PIK3CA(I800L) (Homo sapiens, UniProt P42336, I800L); conditions: read-out: Percent Control
T13 construct: purchased Eurofins DiscoverX KINOMEscan

CSNK1G2 = target: T14, CSNK1G2 (Homo sapiens, UniProt P78368); conditions: read-out: Percent Control
T14 construct: purchased Eurofins DiscoverX KINOMEscan

STK35 = target: T15, STK35 (Homo sapiens, UniProt Q8TDR2); conditions: read-out: Percent Control
T15 construct: purchased Eurofins DiscoverX KINOMEscan

MYO3A = target: T16, MYO3A (Homo sapiens, UniProt Q8NEV4); conditions: read-out: Percent Control
T16 construct: purchased Eurofins DiscoverX KINOMEscan

CAMKK1 = target: T17, CAMKK1 (Homo sapiens, UniProt Q8N5S9); conditions: read-out: Percent Control
T17 construct: purchased Eurofins DiscoverX KINOMEscan

DAPK1 = target: T18, DAPK1 (Homo sapiens, UniProt P53355); conditions: read-out: Percent Control
T18 construct: purchased Eurofins DiscoverX KINOMEscan

PLK4 = target: T19, PLK4 (Homo sapiens, UniProt O00444); conditions: read-out: Percent Control
T19 construct: purchased Eurofins DiscoverX KINOMEscan

TAK1 = target: T20, TAK1 (Homo sapiens, UniProt O43318); conditions: read-out: Percent Control
T20 construct: purchased Eurofins DiscoverX KINOMEscan

FLT1 = target: T21, FLT1 (Homo sapiens, UniProt P17948); conditions: read-out: Percent Control
T21 construct: purchased Eurofins DiscoverX KINOMEscan

FLT3(ITD) = tested on: FLT3(ITD); set-up: species or system human; conditions: 10 μM
ERBB3 = target: T22, ERBB3 (Homo sapiens, UniProt P21860); conditions: read-out: Percent Control
T22 construct: purchased Eurofins DiscoverX KINOMEscan

MYO3B = target: T23, MYO3B (Homo sapiens, UniProt Q8WXR4); conditions: read-out: Percent Control
T23 construct: purchased Eurofins DiscoverX KINOMEscan

LYN = target: T24, LYN (Homo sapiens, UniProt P07948); conditions: read-out: Percent Control
T24 construct: purchased Eurofins DiscoverX KINOMEscan

ALK(C1156Y) = target: T25, ALK(C1156Y) (Homo sapiens, UniProt Q9UM73, C1156Y); conditions: read-out: Percent Control
T25 construct: purchased Eurofins DiscoverX KINOMEscan

MKNK2 = target: T26, MKNK2 (Homo sapiens, UniProt Q9HBH9); conditions: read-out: Percent Control
T26 construct: purchased Eurofins DiscoverX KINOMEscan

ACVR1 = target: T27, ACVR1 (Homo sapiens, UniProt Q04771); conditions: read-out: Percent Control
T27 construct: purchased Eurofins DiscoverX KINOMEscan

MLK1 = target: T28, MLK1 (Homo sapiens, UniProt P80192); conditions: read-out: Percent Control
T28 construct: purchased Eurofins DiscoverX KINOMEscan

ASK2 = target: T29, ASK2 (Homo sapiens, UniProt O95382); conditions: read-out: Percent Control
T29 construct: purchased Eurofins DiscoverX KINOMEscan

MARK1 = target: T30, MARK1 (Homo sapiens, UniProt Q9P0L2); conditions: read-out: Percent Control
T30 construct: purchased Eurofins DiscoverX KINOMEscan

INSR = target: T31, INSR (Homo sapiens, UniProt P06213); conditions: read-out: Percent Control
T31 construct: purchased Eurofins DiscoverX KINOMEscan

MERTK = target: T32, MERTK (Homo sapiens, UniProt Q12866); conditions: read-out: Percent Control
T32 construct: purchased Eurofins DiscoverX KINOMEscan

CAMK4 = target: T33, CAMK4 (Homo sapiens, UniProt Q16566); conditions: read-out: Percent Control
T33 construct: purchased Eurofins DiscoverX KINOMEscan

STK33 = target: T34, STK33 (Homo sapiens, UniProt Q9BYT3); conditions: read-out: Percent Control
T34 construct: purchased Eurofins DiscoverX KINOMEscan

KIT-autoinhibited = target: T35, KIT-autoinhibited (Homo sapiens, UniProt P10721); conditions: read-out: Percent Control
T35 construct: purchased Eurofins DiscoverX KINOMEscan

T33 sequence (Q16566 whole entry): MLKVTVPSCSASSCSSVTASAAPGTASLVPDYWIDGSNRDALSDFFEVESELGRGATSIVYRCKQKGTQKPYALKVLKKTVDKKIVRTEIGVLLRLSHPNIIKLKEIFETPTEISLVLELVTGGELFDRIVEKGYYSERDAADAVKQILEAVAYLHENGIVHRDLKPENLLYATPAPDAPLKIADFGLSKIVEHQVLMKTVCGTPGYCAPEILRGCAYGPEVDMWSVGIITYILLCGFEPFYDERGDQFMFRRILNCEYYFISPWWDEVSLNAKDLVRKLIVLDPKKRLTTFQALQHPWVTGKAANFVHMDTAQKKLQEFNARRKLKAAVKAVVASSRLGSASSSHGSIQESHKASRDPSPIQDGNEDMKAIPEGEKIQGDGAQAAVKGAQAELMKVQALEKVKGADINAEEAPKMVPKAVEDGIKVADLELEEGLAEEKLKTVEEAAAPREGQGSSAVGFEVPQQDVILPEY
T21 sequence (P17948 27-1338): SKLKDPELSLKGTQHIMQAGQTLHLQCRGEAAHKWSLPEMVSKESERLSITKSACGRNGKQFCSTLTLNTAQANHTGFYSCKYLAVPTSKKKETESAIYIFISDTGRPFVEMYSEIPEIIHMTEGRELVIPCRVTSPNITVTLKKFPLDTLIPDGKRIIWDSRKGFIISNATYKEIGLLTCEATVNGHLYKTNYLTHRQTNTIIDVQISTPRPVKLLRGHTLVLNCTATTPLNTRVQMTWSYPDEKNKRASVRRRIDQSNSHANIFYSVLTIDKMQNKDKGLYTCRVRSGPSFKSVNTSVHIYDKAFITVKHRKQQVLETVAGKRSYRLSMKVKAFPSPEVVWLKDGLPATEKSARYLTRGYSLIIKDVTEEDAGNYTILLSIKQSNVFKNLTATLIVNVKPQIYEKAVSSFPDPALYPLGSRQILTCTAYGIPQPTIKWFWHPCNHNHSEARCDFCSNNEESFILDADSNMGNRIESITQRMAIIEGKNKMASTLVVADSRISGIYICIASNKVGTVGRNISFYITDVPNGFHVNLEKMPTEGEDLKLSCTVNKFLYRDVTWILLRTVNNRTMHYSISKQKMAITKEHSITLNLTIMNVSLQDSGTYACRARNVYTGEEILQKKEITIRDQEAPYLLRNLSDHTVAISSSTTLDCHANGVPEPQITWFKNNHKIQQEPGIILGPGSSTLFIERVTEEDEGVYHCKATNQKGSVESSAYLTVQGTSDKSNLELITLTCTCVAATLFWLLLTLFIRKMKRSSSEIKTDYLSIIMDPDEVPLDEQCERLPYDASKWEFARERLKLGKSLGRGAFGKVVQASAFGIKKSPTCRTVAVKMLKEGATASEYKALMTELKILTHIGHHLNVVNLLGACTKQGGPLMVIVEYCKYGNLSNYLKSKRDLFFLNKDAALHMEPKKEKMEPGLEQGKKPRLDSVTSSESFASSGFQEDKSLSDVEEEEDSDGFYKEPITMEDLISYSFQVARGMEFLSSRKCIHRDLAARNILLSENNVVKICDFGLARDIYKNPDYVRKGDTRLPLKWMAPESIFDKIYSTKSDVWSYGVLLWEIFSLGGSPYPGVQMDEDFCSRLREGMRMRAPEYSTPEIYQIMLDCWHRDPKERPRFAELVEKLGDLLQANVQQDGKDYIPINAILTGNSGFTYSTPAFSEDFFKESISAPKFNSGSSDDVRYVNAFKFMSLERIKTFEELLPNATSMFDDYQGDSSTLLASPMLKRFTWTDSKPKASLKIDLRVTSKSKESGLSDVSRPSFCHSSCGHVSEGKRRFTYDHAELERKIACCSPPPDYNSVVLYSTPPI
T8 sequence (P35968 20-1356): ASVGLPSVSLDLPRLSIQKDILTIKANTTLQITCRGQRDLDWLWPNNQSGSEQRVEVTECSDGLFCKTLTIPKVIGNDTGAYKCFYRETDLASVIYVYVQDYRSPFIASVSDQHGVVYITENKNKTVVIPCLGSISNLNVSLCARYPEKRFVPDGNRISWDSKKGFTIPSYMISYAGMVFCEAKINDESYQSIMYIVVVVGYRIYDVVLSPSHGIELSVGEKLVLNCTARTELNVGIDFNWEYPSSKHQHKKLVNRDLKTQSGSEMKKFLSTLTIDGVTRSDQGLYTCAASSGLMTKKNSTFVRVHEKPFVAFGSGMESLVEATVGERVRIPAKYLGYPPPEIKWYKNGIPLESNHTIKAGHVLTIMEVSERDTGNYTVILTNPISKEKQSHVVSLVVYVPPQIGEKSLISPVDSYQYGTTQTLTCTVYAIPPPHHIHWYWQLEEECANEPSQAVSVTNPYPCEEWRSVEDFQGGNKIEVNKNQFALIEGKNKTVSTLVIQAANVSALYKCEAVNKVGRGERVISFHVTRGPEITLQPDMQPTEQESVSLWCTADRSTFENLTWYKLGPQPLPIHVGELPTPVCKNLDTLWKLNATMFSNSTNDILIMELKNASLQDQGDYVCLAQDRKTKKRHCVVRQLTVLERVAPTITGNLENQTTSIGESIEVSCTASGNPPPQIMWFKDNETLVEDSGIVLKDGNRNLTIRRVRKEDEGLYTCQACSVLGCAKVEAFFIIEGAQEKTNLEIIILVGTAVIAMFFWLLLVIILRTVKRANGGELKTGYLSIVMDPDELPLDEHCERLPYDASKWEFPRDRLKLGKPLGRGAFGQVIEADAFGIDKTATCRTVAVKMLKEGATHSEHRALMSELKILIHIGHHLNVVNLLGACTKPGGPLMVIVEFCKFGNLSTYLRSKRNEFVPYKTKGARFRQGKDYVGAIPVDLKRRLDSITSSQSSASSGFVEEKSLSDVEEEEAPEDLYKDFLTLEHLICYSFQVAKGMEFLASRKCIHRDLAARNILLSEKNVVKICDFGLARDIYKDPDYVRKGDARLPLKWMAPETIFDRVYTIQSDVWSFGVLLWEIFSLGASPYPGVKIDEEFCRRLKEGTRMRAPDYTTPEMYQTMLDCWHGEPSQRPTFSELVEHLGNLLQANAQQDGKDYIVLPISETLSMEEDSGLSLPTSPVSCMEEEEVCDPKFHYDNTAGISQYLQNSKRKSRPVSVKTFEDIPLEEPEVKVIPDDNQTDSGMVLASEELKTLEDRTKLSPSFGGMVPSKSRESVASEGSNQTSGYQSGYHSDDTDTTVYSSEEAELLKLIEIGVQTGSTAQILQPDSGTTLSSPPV
T12 sequence (Q06418 41-890): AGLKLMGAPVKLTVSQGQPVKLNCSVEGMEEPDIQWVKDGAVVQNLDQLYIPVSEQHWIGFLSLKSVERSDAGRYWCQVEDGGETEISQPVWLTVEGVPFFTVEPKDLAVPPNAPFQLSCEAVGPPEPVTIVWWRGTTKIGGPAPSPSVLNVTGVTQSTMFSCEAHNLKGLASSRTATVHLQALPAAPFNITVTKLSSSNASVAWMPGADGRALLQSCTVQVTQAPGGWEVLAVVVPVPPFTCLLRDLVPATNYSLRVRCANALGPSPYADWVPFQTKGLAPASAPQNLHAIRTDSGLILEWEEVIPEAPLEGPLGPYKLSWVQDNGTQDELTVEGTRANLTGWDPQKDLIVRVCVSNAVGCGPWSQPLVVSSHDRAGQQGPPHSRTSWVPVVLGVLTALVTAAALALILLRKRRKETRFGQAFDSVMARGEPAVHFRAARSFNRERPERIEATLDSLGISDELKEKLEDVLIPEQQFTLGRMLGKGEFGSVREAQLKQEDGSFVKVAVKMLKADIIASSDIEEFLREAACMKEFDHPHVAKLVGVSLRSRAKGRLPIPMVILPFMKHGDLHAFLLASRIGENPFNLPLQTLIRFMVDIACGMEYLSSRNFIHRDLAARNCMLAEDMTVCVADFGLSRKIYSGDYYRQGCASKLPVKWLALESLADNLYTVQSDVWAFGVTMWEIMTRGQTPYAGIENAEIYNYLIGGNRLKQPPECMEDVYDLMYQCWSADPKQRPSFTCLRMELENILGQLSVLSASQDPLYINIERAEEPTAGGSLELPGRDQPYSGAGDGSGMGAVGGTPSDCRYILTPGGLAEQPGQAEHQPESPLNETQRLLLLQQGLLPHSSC
T15 sequence (Q8TDR2 whole entry): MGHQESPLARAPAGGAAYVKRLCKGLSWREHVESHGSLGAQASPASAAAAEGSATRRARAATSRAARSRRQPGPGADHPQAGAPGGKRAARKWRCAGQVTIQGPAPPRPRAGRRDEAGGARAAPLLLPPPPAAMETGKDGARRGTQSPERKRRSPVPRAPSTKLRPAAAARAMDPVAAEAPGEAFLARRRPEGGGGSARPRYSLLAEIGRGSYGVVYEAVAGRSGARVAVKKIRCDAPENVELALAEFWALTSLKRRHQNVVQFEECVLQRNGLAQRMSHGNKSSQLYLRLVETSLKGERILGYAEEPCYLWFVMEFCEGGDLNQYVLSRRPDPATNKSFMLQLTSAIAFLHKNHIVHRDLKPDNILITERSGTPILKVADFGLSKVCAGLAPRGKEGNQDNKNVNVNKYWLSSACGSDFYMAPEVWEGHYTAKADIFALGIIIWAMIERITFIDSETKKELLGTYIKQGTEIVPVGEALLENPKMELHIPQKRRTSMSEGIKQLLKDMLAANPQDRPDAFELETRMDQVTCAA
T34 sequence (Q9BYT3 whole entry): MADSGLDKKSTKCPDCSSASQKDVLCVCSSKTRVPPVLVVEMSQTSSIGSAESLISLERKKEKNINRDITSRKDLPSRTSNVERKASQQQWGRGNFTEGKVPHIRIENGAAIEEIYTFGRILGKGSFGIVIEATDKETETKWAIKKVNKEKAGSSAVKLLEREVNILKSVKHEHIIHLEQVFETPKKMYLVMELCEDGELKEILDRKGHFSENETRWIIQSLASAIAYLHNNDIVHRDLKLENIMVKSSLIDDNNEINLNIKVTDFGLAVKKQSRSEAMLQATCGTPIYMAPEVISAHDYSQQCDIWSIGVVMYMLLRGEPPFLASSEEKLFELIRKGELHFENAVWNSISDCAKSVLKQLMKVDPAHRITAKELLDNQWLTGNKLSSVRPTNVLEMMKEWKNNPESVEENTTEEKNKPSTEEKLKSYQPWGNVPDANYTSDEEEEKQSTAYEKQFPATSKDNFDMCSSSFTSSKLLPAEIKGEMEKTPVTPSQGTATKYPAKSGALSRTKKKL

## CC(C)NC(=O)COc1cccc(-c2nc(Nc3ccc4[nH]ncc4c3)c3ccccc3n2)c1 [KD025, 2-(3-(4-((1H-indazol-5-yl)amino)quinazolin-2-yl)phenoxy)-N-isopropylacetamide]
EPHB2
  remaining binding at 10 µM: 96%
PDGFRB
  remaining binding at 10 µM: 76%
FGFR2
  remaining binding at 10 µM: 84%
MST1R
  remaining binding at 10 µM: 71%
PRKCH
  remaining binding at 10 µM: 96%
PAK1
  remaining binding at 10 µM: 56%
PIP5K2C
  remaining binding at 10 µM: 71%
VEGFR2
  remaining binding at 10 µM: 76%
PIP5K1A
  remaining binding at 10 µM: 6%
FLT3-autoinhibited
  remaining binding at 10 µM: 71%
MAPKAPK5
  remaining binding at 10 µM: 89%
TYRO3
  remaining binding at 10 µM: 91%
PIK3CA(I800L)
  remaining binding at 10 µM: 100%
CSNK1G2
  remaining binding at 10 µM: 60%
STK35
  remaining binding at 10 µM: 84%
MYO3A
  remaining binding at 10 µM: 94%
CAMKK1
  remaining binding at 10 µM: 94%
DAPK1
  remaining binding at 10 µM: 85%
PLK4
  remaining binding at 10 µM: 93%
TAK1
  remaining binding at 10 µM: 68%
FLT1
  remaining binding at 10 µM: 95%
FLT3(ITD)
  Percent Control: 31%
ERBB3
  remaining binding at 10 µM: 79%
MYO3B
  remaining binding at 10 µM: 100%
LYN
  remaining binding at 10 µM: 100%
ALK(C1156Y)
  remaining binding at 10 µM: 65%
MKNK2
  remaining binding at 10 µM: 68%
ACVR1
  remaining binding at 10 µM: 32%
MLK1
  remaining binding at 10 µM: 87%
ASK2
  remaining binding at 10 µM: 95%
MARK1
  remaining binding at 10 µM: 100%
INSR
  remaining binding at 10 µM: 94%
MERTK
  remaining binding at 10 µM: 58%
CAMK4
  remaining binding at 10 µM: 100%
STK33
  remaining binding at 10 µM: 67%
KIT-autoinhibited
  remaining binding at 10 µM: 78%
